Reference: patent publication US20260374818A1, “CATIONIC PEPTIDES WITH BROAD SPECTRUM ACTIVITY” (priority 2023, published 2026)
Where a SMILES comes first, the peptide text is derived from it. [ ]: non-standard residue; d: D form.

Key:
[1] = test system: P. aeruginosa LESB58 biofilms on Ker-CT epidermal skin; experiment: Skin organoid biofilm model, AB103-D loaded Medvance foam dressing, P. aeruginosa LESB58; format: cell-based, Pseudomonas aeruginosa
[2] = test system: MRSA biofilms on Ker-CT epidermal skin; experiment: Skin organoid biofilm model, AB103-D loaded Medvance foam dressing, MRSA; format: cell-based, methicillin resistant Staphylococcus aureus
[3] = test system: P. aeruginosa 27312 wound biofilms; experiment: Porcine dermal biofilm wound infection model, P. aeruginosa; format: in vivo, porcine; Pseudomonas aeruginosa; settings: compared with ciprofloxacin, silver sulfadiazine
Source text: . Peptide (PEP1=DJK5; PEP3=AB103-D) solutions were used to hydrate Puracol® resorbable dressings made of collagen either alone or in the presence of antibiotic (ABX1=ciprofloxacin). Briefly, partial thickness wounds (10 mm×7 mm×1 mm deep) were created on the backs of the animals then infected with log-phase cultures of bacteria and allowed biofilms to form for 24-hrs. Dressings were applied to infected wounds of either MRSA S. aureus USA300 (FIG. 6A) or P. aeruginosa 27312 (FIG. 6B) as either a single treatment (day 1) or twice treated (Day 1 and 4) and all wounds were excised on day 7 for CFU renumeration. The amount of peptide applied in all treatments was 10 mg while 1 mg of ciprofloxacin was used in and treatment containing antibiotic. Mupirocin and silver sulfadiazine (SSD) were used as positive controls.
In vivo porcine dermal biofilm model: Peptide loaded dressings were evaluated using a porcine dermal biofilm infection model as described previously [Davis, S. C., et al. (2018). The wound-healing effects of a next-generation anti-biofilm silver Hydrofiber wound dressing on deep partial-thickness wounds using a porcine model. International Wound Journal, 15(5), 834-839]. Briefly, partial thickness wounds (10 mm×7 mm×1 mm deep) were created on the backs of the animals then infected with log-phase cultures of bacteria and allowed biofilms to form for 24-hrs. […]

[4] = test system: oral multispecies biofilm; experiment: Oral multispecies biofilm development on HA disks; format: cell-based; settings: 10 μg/ml, 3 days
N/TERT keratinocytes = experiment: Cytotoxicity (LDH release), N/TERT keratinocytes
[5] = test system: PAO1 biofilms on human skin organoid; experiment: Skin organoid biofilm infection model, peptide solution, PAO1; format: cell-based, Pseudomonas aeruginosa; settings: peptide solution 4 hrs (FIG. 3B)
[6] = test system: MRSA biofilms on human skin organoid; experiment: Skin organoid biofilm infection model, peptide solution, MRSA; format: cell-based, methicillin resistant Staphylococcus aureus; settings: peptide solution 4 hrs (FIG. 3A)
[7] = test system: MRSA USA 300 LAC biofilms; experiment: Checkerboard biofilm synergy of AB103-D with antimicrobials, MRSA; format: cell-based, methicillin resistant Staphylococcus aureus
[8] = test system: 3-day-old oral plaque (multispecies) biofilms; experiment: Oral plaque biofilm model, long-term (1-3 days) exposure, dead cell volume; format: cell-based
[9] = test system: P. aeruginosa PAO1 biofilms; experiment: Checkerboard biofilm synergy of AB103-D with antimicrobials, PAO1; format: cell-based, Pseudomonas aeruginosa
[10] = test system: S. epidermidis biofilms on Ker-CT epidermal skin; experiment: Skin organoid biofilm model, AB103-D loaded Medvance foam dressing, S. epidermidis; format: cell-based, Staphylococcus epidermidis
[11] = test system: 3-day-old oral plaque biofilms; experiment: Oral plaque biofilm model, brief (1 minute) exposure, dead cell volume; format: cell-based; settings: 10 μg/ml, 1 minute once or three times, compared to DJK5
[12] = test system: A. baumanii biofilms on Ker-CT epidermal skin; experiment: Skin organoid biofilm model, AB103-D loaded Medvance foam dressing, A. baumanii; format: cell-based, Acinetobacter baumannii
[13] = test system: peripheral blood mononuclear cells (PBMCs); experiment: Cytotoxicity (LDH release), PBMCs
[14] = test system: MRSA biofilms on N/TERT epithelial skin; experiment: Skin organoid biofilm model, peptide-loaded collagen dressings, MRSA; format: cell-based, methicillin resistant Staphylococcus aureus; settings: compared to DJK-5 and ciprofloxacin
[15] = test system: P. aeruginosa biofilms on N/TERT epithelial skin; experiment: Skin organoid biofilm model, peptide-loaded collagen dressings, P. aeruginosa; format: cell-based, Pseudomonas aeruginosa; settings: compared to DJK-5 and ciprofloxacin

## CC[C@@H](C)[C@@H](NC(=O)[C@@H](C)NC(=O)[C@@H](CCCNC(=N)N)NC(=O)[C@@H](Cc1c[nH]c2ccccc12)NC(=O)[C@@H](CCC(N)=O)NC(=O)[C@H](NC(=O)[C@@H](CCCNC(=N)N)NC(=O)[C@H](NC(=O)[C@H](NC(=O)[C@@H](CCCNC(=N)N)NC(=O)[C@H](NC(=O)[C@H](N)CCCNC(=N)N)C(C)C)C(C)C)[C@H](C)CC)C(C)C)C(N)=O [AB103-D, rvrvirvqwrai-NH2] (H-[dR][dV][dR][dV][dI][dR][dV][dQ][dW][dR][dA][dI]-NH2)
ESKAPEE Pathogens
  Broad spectrum antibiofilm activity, more active than DJK5: 2-4 fold
[1]
  Bacterial burden on organoid skin, loaded bandage: effectively reduce the bacterial burden
[2]
  Bacterial burden on organoid skin, loaded bandage: effectively reduce the bacterial burden
[3]
  Efficacy in porcine skin infection: worked as well or better than ciprofloxacin, mupirocin (for MRSA) or silver sulfadiazine (for P. aeruginosa)
[4]
  Total biovolume: reduced total biovolume
[4]; compared to DJK5
  Percentage of dead bacterial cell volume: significantly higher percentage of dead bacterial cell volume compared to DJK5 treatment
N/TERT keratinocytes
  Cytotoxicity (LDH): low toxicity
[5]
  Antibiofilm activity on skin organoid: excellent antibiofilm activity
[6]
  Antibiofilm activity on skin organoid: excellent antibiofilm activity
[7]; MRSA USA 300 biofilms
  Synergy with several other antimicrobials: proved synergistic with several other antimicrobials
[7]; MRSA, 10% TSB + 0.1% glucose, at least 70% reduction of biofilm biomass
  MBIC of AB103-D alone: 1 µg/mL
[8]; 10 μg/ml, daily for 3 days, compared to DJK5 (FIG. 16A)
  Proportion of dead biofilm cells: superior to DJK5 at killing bacteria cells
[8]; 1 or 5 μg/ml, daily for 3 days, compared to DJK5 (FIG. 16A)
  Proportion of dead biofilm cells: killed more of the biofilm cells
[8]; all three concentrations, one day (FIG. 16C)
  Proportion of dead biofilm cells: killed more biofilm cells than DJK5
[8]; all three concentrations, two days (FIG. 16B)
  Proportion of dead biofilm cells: killed more biofilm cells than DJK5
[9]; PAO1, BM2 minimal media, at least 70% reduction of biofilm biomass
  MBIC of AB103-D alone: 2 µg/mL
[9]; PAO1 biofilms
  Synergy with several other antimicrobials: proved synergistic with several other antimicrobials
[10]
  Bacterial burden on organoid skin, loaded bandage: effectively reduce the bacterial burden
[11]
  Killing of 3-day-old oral plaque biofilms: significantly more effective than DJK5
[12]
  Bacterial burden on organoid skin, loaded bandage: effectively reduce the bacterial burden
[13]
  Cytotoxicity (LDH): low toxicity
[14]
  Antibiofilm activity from collagen dressing: clearly superior activity to both DJK-5 and ciprofloxacin
[15]
  Antibiofilm activity from collagen dressing: clearly superior activity to both DJK-5 and ciprofloxacin
